The subject of one assay is mP2X4. The settings on record: cited from earlier work.
The next assay relates to rP2X4. The settings on record: cited from earlier work.
The subject of a further assay is P2X4. More on the design: method as in Hernandez-Olmos et al., 2012. The note with it: ref Hernandez-Olmos et al., 2012; cited from earlier work.
The next assay concerns hP2X4. The note with it: read-out: hP2X4 IC50, cited from earlier work.
The next assay concerns injury-induced allodynia. Also on record: method as in Matsumura et al., 2016; Ushioda et al., 2020. The settings on record: ref Matsumura et al., 2016; Ushioda et al., 2020; cited from earlier work.
Assay [1] concerns the target T1, human P2X4 I312T (h4-I312T) (Homo sapiens, UniProt Q99571, I312T).
T1 construct: expressed in transfected cells; host or cells: 1321N1 astrocytoma cells, stably transfected
T1 sequence (Q99571 1-388 I312T): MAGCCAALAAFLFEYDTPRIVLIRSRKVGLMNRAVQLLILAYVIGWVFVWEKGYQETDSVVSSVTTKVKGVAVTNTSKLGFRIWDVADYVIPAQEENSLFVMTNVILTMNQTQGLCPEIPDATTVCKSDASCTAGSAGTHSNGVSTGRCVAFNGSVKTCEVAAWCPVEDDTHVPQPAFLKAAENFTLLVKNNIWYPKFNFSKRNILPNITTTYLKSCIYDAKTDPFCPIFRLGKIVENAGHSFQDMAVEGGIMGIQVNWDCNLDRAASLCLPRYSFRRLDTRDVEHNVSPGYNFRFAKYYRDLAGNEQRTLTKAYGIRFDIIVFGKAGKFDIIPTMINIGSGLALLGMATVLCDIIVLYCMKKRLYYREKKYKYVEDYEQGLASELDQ
Put plainly: ATP-induced calcium influx (Fluo-4) in 1321N1 cells stably expressing human P2X4 I312T. In kind it is cell-based. The settings on record: 1321N1 cells, human P2X4 I312T. As for the experimental part:
Plasmid encoding rat P2X4 (r4-WT) ([Royle et al., 2005]) was a kind gift from Ruth Murrell-Lagnado, whilst that encoding human P2X4 with a C-terminal (His)10 tag has been reported previously ([Young et al., 2008]).
(§1) 1321N1 astrocytoma cells were cultured (at 37°C, 5% CO2) in Dulbecco’s modified Eagle’s medium (DMEM/F-12 with Glutamax) supplemented with 10% foetal bovine serum (FBS) and 200 unit/mL of penicillin and streptomycin antibiotics (Fisher Scientific). Stably transfected clones were grown in DMEM/F-12 with Glutamax medium supplemented with G-418 (Geneticin®, Fisher Scientific), 600 μg/mL and 150 μg/mL during selection and maintenance, respectively. […] Each cell line was then tested for P2X4 receptor expression by Western blot and for functionality using the Ca^2+ influx assay.
(§2) Cells were plated the day before assay into poly-lysine-coated 96-well plates at 40–55,000 cells/mL. […] Prior to assay, buffer was replaced with fresh modified Ringer’s buffer containing probenecid but not the dye. […] A Fluoroskan Ascent FL plate reader (Fisher Scientific) equipped with a solution dispenser and an appropriate filter pair (excitation: 485 nm, emission: 538 nm) was used to record 5-s baseline followed by P2X4-mediated calcium influx measurements for 20–25 s after ATP stimulation (final concentration ranging between 0.03 and 100 μM in buffered solution, pH = 7.4). The collected responses were normalized to the first data-point recorded after ATP injection.
(§3) Data processing and data analysis were carried out using Graphpad Prism version 6 for Mac. Figures are presented as Mean ± SEM. […] When comparing data obtained from multiple independent experiments (N), each dataset was normalized to the mean value obtained for the vehicle control.

For assay [2], the target named is T2, rat P2X4 wild type (r4-WT) (Rattus norvegicus, UniProt P51577).
T2 construct: expressed in transfected cells; host or cells: 1321N1 astrocytoma cells, stably transfected
T2 sequence (P51577 1-388): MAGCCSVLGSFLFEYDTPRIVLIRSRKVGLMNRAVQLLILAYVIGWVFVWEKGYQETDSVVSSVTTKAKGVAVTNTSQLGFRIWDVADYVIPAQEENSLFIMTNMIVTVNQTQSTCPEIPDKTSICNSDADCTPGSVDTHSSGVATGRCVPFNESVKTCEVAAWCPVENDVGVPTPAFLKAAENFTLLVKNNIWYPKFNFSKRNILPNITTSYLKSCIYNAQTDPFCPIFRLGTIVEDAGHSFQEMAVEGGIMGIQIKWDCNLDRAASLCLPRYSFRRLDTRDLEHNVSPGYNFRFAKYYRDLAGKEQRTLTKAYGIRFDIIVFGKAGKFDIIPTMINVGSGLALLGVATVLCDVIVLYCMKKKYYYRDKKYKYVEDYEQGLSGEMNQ
As to the kind of experiment: ATP-induced calcium influx (Fluo-4) in 1321N1 cells stably expressing rat P2X4 wild type. The format is cell-based. The settings on record: 1321N1 cells, rat P2X4 WT. Here is the method:
(§4) 1321N1 astrocytoma cells were cultured (at 37°C, 5% CO2) in Dulbecco’s modified Eagle’s medium (DMEM/F-12 with Glutamax) supplemented with 10% foetal bovine serum (FBS) and 200 unit/mL of penicillin and streptomycin antibiotics (Fisher Scientific). Stably transfected clones were grown in DMEM/F-12 with Glutamax medium supplemented with G-418 (Geneticin®, Fisher Scientific), 600 μg/mL and 150 μg/mL during selection and maintenance, respectively. FuGene HD Transfection Reagent (Promega) was used according to the manufacturer’s protocol for the generation of stable cell line expressing h4-WT, r4-WT, h4-I312T, and r4-T312I. Each cell line was then tested for P2X4 receptor expression by Western blot and for functionality using the Ca^2+ influx assay.
(§5) Cells were plated the day before assay into poly-lysine-coated 96-well plates at 40–55,000 cells/mL. To load cells with calcium-sensitive fluorescent dye, culture medium was replaced with modified Ringer’s buffer (140 mM NaCl, 10 mM HEPES, 10 mM Glucose, 1 mM MgCl2, 1 mM CaCl2, 2.5 mM KCl, 0.5% BSA, pH = 7.4) containing 2.6 μM FLUO4-AM (Fisher Scientific) and 250 μM probenecid (Sigma), and cells were incubated for 20–30 min. Prior to assay, buffer was replaced with fresh modified Ringer’s buffer containing probenecid but not the dye. […] A Fluoroskan Ascent FL plate reader (Fisher Scientific) equipped with a solution dispenser and an appropriate filter pair (excitation: 485 nm, emission: 538 nm) was used to record 5-s baseline followed by P2X4-mediated calcium influx measurements for 20–25 s after ATP stimulation (final concentration ranging between 0.03 and 100 μM in buffered solution, pH = 7.4). The collected responses were normalized to the first data-point recorded after ATP injection.
(§6) Data processing and data analysis were carried out using Graphpad Prism version 6 for Mac. Figures are presented as Mean ± SEM. Statistical significance of any difference observed between samples was calculated through one-way ANOVA followed by Dunnett’s multiple comparisons test with a single pooled variance (control, unless otherwise specified) or, when comparing only two sets of data, using an unpaired t-test with Welch’s correction. When comparing data obtained from multiple independent experiments (N), each dataset was normalized to the mean value obtained for the vehicle control.

Assay [3] addresses T3, human P2X4 wild type (h4-WT) (Homo sapiens, UniProt Q99571).
T3 construct: expressed in transfected cells; host or cells: 1321N1 astrocytoma cells, stably transfected
T3 sequence (Q99571 1-388): T1 sequence (Q99571 1-388 I312T) with T312I
Put plainly: ATP-induced calcium influx (Fluo-4) in 1321N1 cells stably expressing human P2X4 wild type. In kind it is cell-based. The note with it: 1321N1 cells, human P2X4 WT. As for the experimental part: as §1, §2, §3

Assay [4] concerns the target T4, rat P2X4 T312I (r4-T312I) (Rattus norvegicus, UniProt P51577, T312I).
T4 construct: expressed in transfected cells; host or cells: 1321N1 astrocytoma cells, stably transfected
T4 sequence (P51577 1-388 T312I): T2 sequence (P51577 1-388) with T312I
Put plainly: ATP-induced calcium influx (Fluo-4) in 1321N1 cells stably expressing rat P2X4 T312I. In kind it is cell-based. The settings on record: 1321N1 cells, rat P2X4 T312I.
Text: Plasmid encoding rat P2X4 (r4-WT) ([Royle et al., 2005]) was a kind gift from Ruth Murrell-Lagnado, whilst that encoding human P2X4 with a C-terminal (His)10 tag has been reported previously ([Young et al., 2008]). Plasmids containing rat P2X4 T312I (r4-T312I) and human P2X4 I312T mutants (h4-I312T) were generated using the QuikChange Lightning site-directed mutagenesis kit (Agilent) according to manufacturer’s instructions. Sequencing of the constructs and of the genomic DNA from stably transfected cells confirmed correct full coding sequences.
as §4, §5, §6

The subject of another assay is human P2X4 open channel. More on the design: method as in Bidula et al. (2022). The settings on record: ref Bidula et al. (2022); cited from earlier work.
Setting [5] is: approximate value for the series, ref Matsumura et al., 2016, Ushioda et al., 2020, read-out: IC50 at mouse P2X4.

One may read the IC50 as the concentration that inhibits the measured activity by half. As a reminder, the EC50 is the concentration giving half of the maximal effect.

Positions count from the first letter of the chain named. Like-named read-outs stand apart in the source and are kept apart here. Some results are limits rather than exact numbers.

In the case of `NS(=O)(=O)c1cc(NC(=O)Cc2ccccc2)ccc1Oc1cccc(Cl)c1` [BAY-1797, N-[4-(3-Chlorophenoxy)-3-sulfamoylphenyl]-2-phenylacetamide], the IC50 in the assay with mP2X4 (ref Werner et al. (2019), read-out: mP2X4 IC50) is 200 nM; in the assay on rP2X4 (ref Werner et al. (2019)), 100 nM.
As for `Cc1ccc(S(=O)(=O)N2c3ccccc3Oc3ccccc32)cc1` [PSB-12062], the “potency as P2X4 antagonist (in words)” value in the assay with P2X4 is “low micromolar range”.
For `CC(C)c1ccc(NC(=S)NC(=O)C23CC4CC(CC(C4)C2)C3)c(Br)c1` [Mahmood-4n], in the assay with hP2X4 (ref Mahmood et al. (2022a)), the IC50 was 40 nM.
Turning to `CC(C)c1ccc(NC(=S)NC(=O)c2ccc3c(c2)OCO3)c(Br)c1` [Mahmood-9o], the IC50 in the assay on hP2X4 (ref Mahmood et al. (2022b)) was 39 nM.
Regarding `Cc1c(-c2cccc(-c3nnn[nH]3)c2)c2[nH]c3ccccc3c2[nH]c1=O` [Sunovion-A], the IC50 in the assay on hP2X4 (ref Newcom and Spear (2013)) is less than 100 nM.
In the case of `O=C1CC(=O)N(c2cccc(-c3noc(=S)[nH]3)c2)c2ccc3ccccc3c2N1` [NP-1815-PX], the IC50 in the assay on mP2X4 (setting [5]) is roughly 250 nM. Besides, the “effect in in vivo rodent model of injury-induced allodynia” value (“effect in in vivo rodent model” for short) with injury-induced allodynia was “anti-allodynic effect”.
Regarding `O=C(NC(=S)Nc1c(Br)ccc(C(F)(F)F)c1Br)c1ccc2c(c1)OCO2` [Mahmood-9g], the IC50 with hP2X4 (ref Mahmood et al. (2022b)) was 55 nM.
For the compound `O=C(C1CC1)N1CCc2cc(Br)c(S(=O)(=O)Nc3ccc(Cl)c(C(F)(F)F)c3)cc21` [Indophagolin], the IC50 in the assay on hP2X4 (ref Carnero Corrales et al. (2021)) is 140 nM.
For `Nc1ncnc2c1ncn2[C@@H]1O[C@H](COP(=O)(O)OP(=O)(O)OP(=O)(O)O)[C@@H](O)[C@H]1O` [ATP], the “ATP pEC50 (± SEM)” value is recorded as 6.112 (± 0.028) in assay [1], 5.770 (± 0.0507) in assay [2], 5.901 (± 0.0577) in assay [3] and 6.136 (± 0.0645) in assay [4]. Also, the EC50 in [1] is 770 nM; in [2], 1700 nM; in assay [3] it was 1260 nM; in assay [4], 730 nM. In addition, the “Hill coefficient (ATP concentration-response)” value in [1] is recorded as 2.057; in assay [2], 1.441; in [3], 1.098; in [4], 2.475.
As for `O=C1CC(=O)N(c2ccc(NC(=O)c3ccccc3I)cc2)c2ccc3ccccc3c2N1` [NP-B], the IC50 in the assay on hP2X4 (ref Matsumura et al., 2016, Ushioda et al., 2020) was 430 nM; in the assay on mP2X4 (setting [5]), roughly 250 nM. Moreover, in the assay with injury-induced allodynia, the “effect in in vivo rodent model” value is given as “anti-allodynic effect”.
Take `O=C1CN=C(c2cccc(Br)c2)c2oc3ccccc3c2N1` [5-BDBD]: the IC50 is 2040 nM in the assay on mP2X4 (ref Abdelrahman et al. (2017), read-out: mP2X4 IC50); 3470 nM in the assay on rP2X4 (ref Abdelrahman et al. (2017)); 750 nM in the assay on rP2X4 (ref Coddou et al. (2019)). Moreover, the “capability of blocking the open channel” value in the assay with human P2X4 open channel is on record as “not”.
As to `O=C1CC(=O)N(c2ccc(NS(=O)(=O)Cc3ccccc3Cl)cc2)c2ccc3ccccc3c2N1` [NP-A], in the assay on mP2X4 (setting [5]), the IC50 is roughly 250 nM. In addition, the “effect in in vivo rodent model” value with injury-induced allodynia is “anti-allodynic effect”.

Values taken from article PMC9947563, “Identification of the molecular determinants of antagonist potency in the allosteric binding pocket of human P2X4” (Frontiers in Pharmacology, 2023).
